According to patent US4748187A, “Opioid peptide-degrading enzyme inhibitor with a germanium compound” (Asai Germanium Research Institute, priority 1983, dated 1988):

How the values were obtained:
Format in all cases: biochemical
Dipeptidylaminopeptidase [1] = assay: Inhibition of dipeptidylaminopeptidase from monkey brain (substrate enkephalin)
Aminopeptidase [2] = assay: Inhibition of aminopeptidase from monkey brain (substrate enkephalin)
aminopeptidase [3] = assay: Inhibition of aminopeptidase of human cerebrospinal fluid (substrate enkephalin); conditions: for IC50: aminopeptidase eluted from human cerebrospinal fluid, substrate enkephalin; for inhibition effect on aminopeptidase: dialyzed human cerebrospinal fluid, 2 mg/ml
Protocol: (§1) A human cerebrospinal fluid was dialyzed by using 25 mM of tris-HCl buffer having a pH of 7.0 for 5 hrs. Enkephalin-degrading enzymes contained therein were analyzed according to a radioautography or the like. In the cerebrospinal fluid, the aminopeptidase activity was the strongest. Further, dipeptidylaminopeptidase and dipeptidylcarboxypeptidase activites which were non-selective for bestatin were also recognized.
(§2) The compound (3) and (6) of the present invention were allowed to act on the respective enzymes.
On the other hand, the aminopeptidase alone was eluted according to the cellulose column chromatography using a NaCl solution as a eluant. IC50 values of the above two compounds on the aminopeptidase were determined according to Porapak Q column process and high-performance liquid chromatography using enkephalin as the substrate. The results were compared with those of Arphamenin A and B the inhibitive actions of which on the enkephalin-degrading enzyme have been known.

dipeptidylaminopeptidase [4] = biological target: T1, dipeptidylaminopeptidase (Homo sapiens, UniProt Q9NY33); assay: Inhibition of dipeptidylaminopeptidase of human cerebrospinal fluid; conditions: dialyzed human cerebrospinal fluid; 2 mg/ml
T1 construct: A human cerebrospinal fluid was dialyzed; from tissue; host or cells: human cerebrospinal fluid, dialyzed
T1 sequence (Q9NY33 2-737 limits assumed): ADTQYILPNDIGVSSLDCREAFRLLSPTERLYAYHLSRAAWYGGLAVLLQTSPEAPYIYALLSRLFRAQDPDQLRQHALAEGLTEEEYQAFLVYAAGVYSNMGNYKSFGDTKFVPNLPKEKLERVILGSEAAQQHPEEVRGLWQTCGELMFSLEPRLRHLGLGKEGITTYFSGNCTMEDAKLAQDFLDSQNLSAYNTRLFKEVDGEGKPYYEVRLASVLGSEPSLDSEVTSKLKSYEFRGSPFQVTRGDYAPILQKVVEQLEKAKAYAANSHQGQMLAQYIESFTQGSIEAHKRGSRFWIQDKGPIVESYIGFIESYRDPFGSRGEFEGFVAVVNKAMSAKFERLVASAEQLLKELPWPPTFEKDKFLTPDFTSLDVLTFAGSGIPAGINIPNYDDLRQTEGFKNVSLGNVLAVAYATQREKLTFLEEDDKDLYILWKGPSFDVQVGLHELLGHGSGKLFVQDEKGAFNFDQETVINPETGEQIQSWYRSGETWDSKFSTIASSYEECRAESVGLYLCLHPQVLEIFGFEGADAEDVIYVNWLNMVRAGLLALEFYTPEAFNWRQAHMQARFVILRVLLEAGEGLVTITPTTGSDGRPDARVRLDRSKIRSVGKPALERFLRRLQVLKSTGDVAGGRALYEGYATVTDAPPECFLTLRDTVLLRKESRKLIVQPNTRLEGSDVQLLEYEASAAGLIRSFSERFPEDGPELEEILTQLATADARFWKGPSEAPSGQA
Protocol: as §1, §2

[5] = biological target: dipeptidylcarboxypeptidase (Homo sapiens, UniProt P12821); assay: Inhibition of dipeptidylcarboxypeptidase of human cerebrospinal fluid; conditions: dialyzed human cerebrospinal fluid; 2 mg/ml
Protocol: as §1, §2

[6] = biological target: T2, Dipeptidylcarboxypeptidase (Bos taurus, UniProt P12820); assay: Inhibition of dipeptidylcarboxypeptidase from bovine longitudinal muscle (substrate Hip-His-Leu)
T2 construct: derived from bovine longitudinal muscle; from tissue; host or cells: bovine longitudinal muscle, partially purified (Gorenstein and Snyder 1979)
T2 sequence (P12820 29-1306): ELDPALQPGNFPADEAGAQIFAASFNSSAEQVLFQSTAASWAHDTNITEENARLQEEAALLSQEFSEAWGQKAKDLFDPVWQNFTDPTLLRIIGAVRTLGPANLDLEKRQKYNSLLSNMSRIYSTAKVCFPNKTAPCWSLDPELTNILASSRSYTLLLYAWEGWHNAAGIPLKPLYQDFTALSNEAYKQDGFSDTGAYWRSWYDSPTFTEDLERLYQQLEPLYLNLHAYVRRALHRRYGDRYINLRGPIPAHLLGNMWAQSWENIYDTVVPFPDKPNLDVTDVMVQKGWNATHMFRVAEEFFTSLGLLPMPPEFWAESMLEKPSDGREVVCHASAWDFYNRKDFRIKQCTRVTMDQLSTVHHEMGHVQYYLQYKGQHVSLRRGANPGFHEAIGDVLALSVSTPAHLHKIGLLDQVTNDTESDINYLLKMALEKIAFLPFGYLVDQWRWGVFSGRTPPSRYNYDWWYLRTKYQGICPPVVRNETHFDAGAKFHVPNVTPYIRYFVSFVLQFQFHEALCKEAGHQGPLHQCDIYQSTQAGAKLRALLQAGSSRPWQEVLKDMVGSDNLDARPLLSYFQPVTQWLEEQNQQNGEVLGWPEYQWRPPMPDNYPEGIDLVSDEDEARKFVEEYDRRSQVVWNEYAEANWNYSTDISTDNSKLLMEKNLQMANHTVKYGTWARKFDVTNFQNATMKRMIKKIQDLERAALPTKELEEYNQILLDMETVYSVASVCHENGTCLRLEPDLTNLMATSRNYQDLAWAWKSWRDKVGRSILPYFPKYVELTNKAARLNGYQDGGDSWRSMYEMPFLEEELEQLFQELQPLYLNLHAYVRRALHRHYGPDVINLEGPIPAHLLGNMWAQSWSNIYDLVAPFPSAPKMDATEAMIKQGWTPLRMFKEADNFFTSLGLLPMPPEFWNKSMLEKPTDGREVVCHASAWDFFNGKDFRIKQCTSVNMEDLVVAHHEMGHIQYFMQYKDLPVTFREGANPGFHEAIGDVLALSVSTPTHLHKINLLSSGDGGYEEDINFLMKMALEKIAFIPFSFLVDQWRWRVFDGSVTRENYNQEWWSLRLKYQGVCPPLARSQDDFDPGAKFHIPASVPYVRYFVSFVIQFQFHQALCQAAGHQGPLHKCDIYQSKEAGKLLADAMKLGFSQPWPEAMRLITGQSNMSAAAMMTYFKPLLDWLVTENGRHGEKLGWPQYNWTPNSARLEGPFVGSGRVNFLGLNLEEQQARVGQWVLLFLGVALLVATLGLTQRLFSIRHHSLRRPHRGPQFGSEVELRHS
Source text: (§3) (1) As described above, the inhibitor of the present invention has a strong effect of inhibiting the action of the opioid peptide-degrading enzyme. […] On the other hand, however, some opioid peptides released in vivo when such narcotic substances are given and opioid peptide-degrading enzymes have been known. Accordingly, the effects of the products of the present invention were judged from inhibition rates realized when the products were allowed to act on the opioid peptide-degrading enzyme in the presence of the opioid peptide in vitro.
(§4) In the tests, the product of the invention was added to an opioid peptide such as enkephalin or its model compound. After an incubation effected for a given time, the inhibition rates of the product against the opioid peptide-degrading enzyme were examined. Various opioid peptides were used.
The opioid peptide-degrading enzymes derived from bovine longitudinal muscle used in the above examples were purified partially by a process of Goreustein and Snyder S. H., ["Life Sci." 25, 2065 (1979)]. The inhibition effects of the compounds of the present invention on the opioid peptide-degrading enzymes were determined by a process of T. Hazato, M. Shimamura, T. Katayama and T. Yamamoto [B.B.R.C. 105, 470-475 (1982)] (for dipeptidylaminopeptidase), a process of M. Shimamura, T. Hazato and T. Katayama [B.B.A., 756, 223-229 (1983)] […]

Carboxypeptidase [7] = assay: Inhibition of carboxypeptidase from bovine longitudinal muscle (substrate Hip-L-PheAla); conditions: for inhibition rate, Carboxypeptidase: principal ingredient 1 μg/1 ml
Source text: as §3, §4
(§5) The opioid peptide-degrading enzymes derived from bovine longitudinal muscle used in the above examples were purified partially by a process of Goreustein and Snyder S. H., ["Life Sci." 25, 2065 (1979)]. The inhibition effects of the compounds of the present invention on the opioid peptide-degrading enzymes were determined by a process of T. Hazato, M. Shimamura, T. Katayama and T. Yamamoto [B.B.R.C. 105, 470-475 (1982)] (for dipeptidylaminopeptidase), a process of M. Shimamura, T. Hazato and T. Katayama [B.B.A., 756, 223-229 (1983)] (for aminopeptidase) and analogous processes.

[8] = biological target: T3, angiotensin converting enzyme (Rattus norvegicus, UniProt P47820); assay: Inhibition of angiotensin converting enzyme from rat lung; conditions: substrate Hip--His--L-Lue
T3 construct: lung; from tissue; host or cells: rat lung
T3 sequence (P47820 36-1313): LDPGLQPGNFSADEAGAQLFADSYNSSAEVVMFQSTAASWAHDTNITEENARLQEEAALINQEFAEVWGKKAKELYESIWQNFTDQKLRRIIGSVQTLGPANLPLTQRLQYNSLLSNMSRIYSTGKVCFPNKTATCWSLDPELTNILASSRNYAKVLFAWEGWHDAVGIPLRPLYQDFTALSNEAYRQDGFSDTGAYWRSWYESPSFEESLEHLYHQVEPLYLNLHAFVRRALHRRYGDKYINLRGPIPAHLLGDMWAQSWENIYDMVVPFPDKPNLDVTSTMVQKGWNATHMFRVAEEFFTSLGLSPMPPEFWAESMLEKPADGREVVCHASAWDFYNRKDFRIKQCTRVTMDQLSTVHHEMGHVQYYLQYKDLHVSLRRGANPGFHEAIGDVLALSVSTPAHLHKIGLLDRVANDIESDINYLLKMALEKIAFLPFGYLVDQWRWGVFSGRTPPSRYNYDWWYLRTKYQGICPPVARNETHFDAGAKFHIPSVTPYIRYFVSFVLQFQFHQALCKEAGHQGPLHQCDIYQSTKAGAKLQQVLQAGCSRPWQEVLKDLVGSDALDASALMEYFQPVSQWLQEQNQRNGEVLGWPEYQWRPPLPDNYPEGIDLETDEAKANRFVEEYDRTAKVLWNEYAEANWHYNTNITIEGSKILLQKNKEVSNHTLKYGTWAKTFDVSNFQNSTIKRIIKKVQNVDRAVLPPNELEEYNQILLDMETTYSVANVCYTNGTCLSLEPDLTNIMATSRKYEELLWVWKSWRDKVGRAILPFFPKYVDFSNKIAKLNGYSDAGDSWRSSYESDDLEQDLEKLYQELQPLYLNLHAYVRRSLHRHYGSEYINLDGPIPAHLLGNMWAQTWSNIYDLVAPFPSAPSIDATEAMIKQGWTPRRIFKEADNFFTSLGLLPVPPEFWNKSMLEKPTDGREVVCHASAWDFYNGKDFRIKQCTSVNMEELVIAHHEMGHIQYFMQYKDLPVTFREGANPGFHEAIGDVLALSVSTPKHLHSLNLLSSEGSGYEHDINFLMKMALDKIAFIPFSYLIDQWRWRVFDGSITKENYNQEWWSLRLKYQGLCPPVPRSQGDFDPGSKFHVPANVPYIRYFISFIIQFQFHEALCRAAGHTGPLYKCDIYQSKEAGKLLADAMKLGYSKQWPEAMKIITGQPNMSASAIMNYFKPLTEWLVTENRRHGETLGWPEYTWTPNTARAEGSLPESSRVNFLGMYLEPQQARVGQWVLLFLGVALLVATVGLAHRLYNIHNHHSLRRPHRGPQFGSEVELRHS

[9] = biological target: Angiotensin converting enzyme; assay: Inhibition of angiotensin converting enzyme from monkey brain; conditions: substrate Hip--His--L-Lue
Aminopeptidase [10] = assay: Inhibition of aminopeptidase from bovine longitudinal muscle (substrate enkephalin); conditions: for IC50: aminopeptidase; for inhibition rate, Aminopeptidase: principal ingredient 1 μg/1 ml
Source text: as §3, §4, §5

carboxypeptidase [11] = assay: Inhibition of carboxypeptidase of human cerebrospinal fluid; conditions: dialyzed human cerebrospinal fluid; 2 mg/ml
Protocol: as §1, §2

dipeptidylcarboxypeptidase, sequence (P12821 30-1232): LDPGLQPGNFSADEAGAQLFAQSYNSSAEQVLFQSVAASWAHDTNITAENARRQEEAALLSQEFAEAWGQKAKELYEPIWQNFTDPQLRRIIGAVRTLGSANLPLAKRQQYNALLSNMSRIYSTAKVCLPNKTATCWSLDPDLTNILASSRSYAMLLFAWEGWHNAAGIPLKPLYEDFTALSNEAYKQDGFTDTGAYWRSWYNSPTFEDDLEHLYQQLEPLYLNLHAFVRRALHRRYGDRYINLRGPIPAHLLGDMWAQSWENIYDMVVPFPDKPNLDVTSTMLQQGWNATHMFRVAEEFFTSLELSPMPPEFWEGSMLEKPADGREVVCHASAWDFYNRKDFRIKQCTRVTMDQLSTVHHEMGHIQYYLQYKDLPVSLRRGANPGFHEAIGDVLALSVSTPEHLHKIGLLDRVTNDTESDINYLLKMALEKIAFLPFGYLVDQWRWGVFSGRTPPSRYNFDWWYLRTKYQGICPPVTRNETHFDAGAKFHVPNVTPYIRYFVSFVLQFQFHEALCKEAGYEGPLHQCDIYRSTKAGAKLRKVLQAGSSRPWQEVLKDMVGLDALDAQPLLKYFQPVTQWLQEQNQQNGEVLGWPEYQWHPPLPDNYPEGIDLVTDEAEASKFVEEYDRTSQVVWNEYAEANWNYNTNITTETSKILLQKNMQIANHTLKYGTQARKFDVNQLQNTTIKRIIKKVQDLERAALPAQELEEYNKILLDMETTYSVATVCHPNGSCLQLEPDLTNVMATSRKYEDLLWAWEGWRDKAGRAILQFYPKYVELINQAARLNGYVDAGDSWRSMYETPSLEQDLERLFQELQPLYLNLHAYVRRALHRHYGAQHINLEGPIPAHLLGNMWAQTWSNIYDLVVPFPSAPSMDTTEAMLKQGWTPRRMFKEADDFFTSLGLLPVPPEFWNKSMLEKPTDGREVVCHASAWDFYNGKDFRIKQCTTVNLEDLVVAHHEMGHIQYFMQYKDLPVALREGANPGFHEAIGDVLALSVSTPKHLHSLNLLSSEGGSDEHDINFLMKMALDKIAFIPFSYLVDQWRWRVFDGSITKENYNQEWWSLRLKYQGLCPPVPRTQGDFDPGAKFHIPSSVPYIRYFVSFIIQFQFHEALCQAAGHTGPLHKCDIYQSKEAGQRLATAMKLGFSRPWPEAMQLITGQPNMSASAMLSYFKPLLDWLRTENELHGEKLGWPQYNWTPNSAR

CC([CH2][Ge](=[S])[S][Ge](=[S])[CH2]C(C)C(=O)O)C(=O)O (stereo not drawn) [Compound (3)]
inhibition rate, Dipeptidylaminopeptidase (Dipeptidylaminopeptidase [1]): 97.7%
inhibition rate, Aminopeptidase (Aminopeptidase [2]): 85.6%
IC50 (aminopeptidase [3]): 450 μg/m
inhibition effect on aminopeptidase (aminopeptidase [3]): exhibited inhibition effects
inhibition effect on dipeptidylaminopeptidase (dipeptidylaminopeptidase [4]): exhibited inhibition effects
inhibition effect on dipeptidylcarboxypeptidase [5]: exhibited inhibition effects

N=C(N)NCCCC(N)C(=O)CC(Cc1ccccc1)C(=O)O (stereo not drawn) [Arphamenine A, reference compound]
IC50 (aminopeptidase [3]): 810 μg/m

C[CH](CC(=O)O)[Ge](=[S])[S][Ge](=[S])[CH](C)CC(=O)O (stereo not drawn) [Compound (2)]
IC50 [6]: 159 µM
inhibition rate, Carboxypeptidase (Carboxypeptidase [7]): 6.2%
inhibition rate, Dipeptidylaminopeptidase (Dipeptidylaminopeptidase [1]): 97.9%
inhibition rate, Aminopeptidase (Aminopeptidase [2]): 87.6%
IC50 [8]: 168 µM
IC50 [9]: 78 µg/mL

N=C(N)NCCCC(N)C(=O)CC(Cc1ccc(O)cc1)C(=O)O (stereo not drawn) [Arphamenine B, reference compound]
IC50 (aminopeptidase [3]): 650 μg/m

O=C(O)C[CH](c1ccccc1)[Ge](=[S])[S][Ge](=[S])[CH](CC(=O)O)c1ccccc1 (stereo not drawn) [Compound (6)]
IC50 [6]: 185 µM
IC50 (Carboxypeptidase [7]; carboxypeptidase): 275 µg/mL
inhibition rate, Carboxypeptidase (Carboxypeptidase [7]): 89.8%
IC50 (Aminopeptidase [10]): 19 µg/mL
inhibition rate, Aminopeptidase (Aminopeptidase [10]): 97.0%
IC50 (aminopeptidase [3]): 440 μg/m
inhibition effect on aminopeptidase (aminopeptidase [3]): exhibited inhibition effects
inhibition effect on dipeptidylcarboxypeptidase [5]: exhibited inhibition effects
inhibition effect on carboxypeptidase (carboxypeptidase [11]): exhibited inhibition effects

O=C(O)C[CH2][Ge](=[S])[S][Ge](=[S])[CH2]CC(=O)O [Compound (1)]
inhibition rate, Dipeptidylaminopeptidase (Dipeptidylaminopeptidase [1]): 98.2%
inhibition rate, Aminopeptidase (Aminopeptidase [2]): 87.8%

C[C](C)(CC(=O)O)[Ge](=[S])[S][Ge](=[S])[C](C)(C)CC(=O)O [Compound (5)]
IC50 (Aminopeptidase [10]): 110 µg/mL
inhibition rate, Aminopeptidase (Aminopeptidase [10]): 88.0%
